Columns and labels:
Assay type in all cases: cell-based, human
[1] = system: LP-1 cells; assay: Proliferation assay (CellTiter-Glo), LP-1; conditions: LP-1, 48 h treatment
Procedure: Human MM cell lines used were as follows: NCI-H929, OPM-2, LP-1, RPMI-8226, U266 (DSMZ, Braunschweig, Germany). Cell lines were cultured in RPMI 1640 medium (Biochrom, Berlin, Germany) supplemented with 10% heat-inactivated fetal calf serum (FCS, Gibco, Karlsruhe, Germany), 1 mM sodium pyruvate and 100 units/ml penicillin and 100 μg/ml streptomycin (Gibco). Human osteoclasts were obtained as described in the reference of Zavrski I, Krebbel H, Wildemann B, et al. Proteasome inhibitors abrogate osteoclast differentiation and osteoclast function. Biochem Biophys Res Commun. 2005; 333:200-205. Briefly, peripheral blood mononuclear cells (PBMC) were isolated from whole blood of healthy volunteers, using a Ficoll-Hypaque density gradient. The adherent fraction of the isolated mononuclear cells was cultured for 21 days in MEM medium (Sigma-Aldrich Chemie, Taufkirchen, Germany) supplemented with 10% FCS, 100 U/ml penicillin, 100 μg/ml streptomycin, 50 ng/ml M-CSF, and 25 ng/ml RANKL (osteoclastogenic medium), before coculture experiments and treatment with the inventive compounds started. […]
For assaying proliferation/viability of cells CellTiter-Glo Luminescent Cell Viability Assay (Promega, Mannheim, Germany) was used. In this assay the number of viable cells at a given time point is determined by quantification of ATP present, which serves as a measure of metabolically active cells. […]

[2] = system: MSC; assay: PARP cleavage in mesenchymal stem cells (MSC), mono- and coculture; conditions: mono- and cocultures, high doses of GSI15
Procedure: Whole cell extracts were prepared and quantified as described in Jundt F, Anagnostopoulos I, Forster R, Mathas S, Stein H, Dorken B. Activated Notch1 signaling promotes tumor cell proliferation and survival in Hodgkin and anaplastic large cell lymphoma. Blood. 2002; 99:3398-3403. Proteins (30 μg) were resolved by sodium dodecyl sulfate-polyacrylamide gel electrophoresis (SDS-PAGE) and transferred to nitrocellulose membranes. Protein loading was normalized by Ponceau red staining. Membranes were incubated with monoclonal mouse anti-Notch1 antibody (no. 552466; BD Biosciences, Heidelberg, Germany), anti-Jagged1 antibody (sc-8303; Santa Cruz Biotechnology), polyclonal rabbit anti-Delta antiboday (Santa Cruz Biotechnology), polyclonal rabbit anti-cleaved PARP (Asp214) antibody (Cell Signaling Technologies, Frankfurt a.M., Germany) or mouse monoclonal anti-tubulin antibody (Sigma, Deisenhofen, Germany).
Secondary antibodies were goat anti-mouse (Promega, Mannheim, Germany), goat anti-rat (Dianova, Hamburg, Germany), and goat anti-rabbit (Santa Cruz Biotechnology) horseradish peroxidase (HRP)-conjugated antibodies. Detection was done using Pico chemi-luminescence reagent (Perbio Science, Bonn, Germany).

[3] = system: LP-1 cells; assay: Cell cycle analysis (propidium iodide), sub-G1 fraction, LP-1; conditions: LP-1, after 72 h
Procedure: The compound according to example 1, hereinafter referred to as GSI15, (compound RH02015SC, Maybridge, Acros Organics, Geel, Belgium) was freshly dissolved as 26 mM stock solution in Dimethylsulfoxide (DMSO). Multiple myeloma therapeutics used were melphalan (marketed as Alkeran®, GlaxoSmithKline, Munich, Germany) and bortezomib (marketed as Velcade®, Janssen-Cilag, Neuss, Germany). Melphalan was freshly dissolved at 10 mg/ml in 0.9% NaCl-solution. Bortezomib was freshly dissolved at 100 ng/ml in 0.9% NaCl solution. Gamma Secretase Inhibitor (GSI) treatment for apoptosis assessment by AnnexinV/PI staining, cell cycle analysis and coculture experiments was performed in 6-well plates. GSI15 stock solution was added directly to the cell suspension. GSI treatment for assaying proliferation was performed in 96-well plates. […]
For cell cycle analysis 2×10^5 cells were spun down, medium was aspirated and cells washed with PBS. […] After 10 minutes incubation in the dark at room temperature, cells were analyzed by flow cytometry. The amount of apoptotic cells was determined by AnnexinV/propidium iodide staining using Human AnnexinV-FITC Kit (Bender Medsystems, Vienna, Austria), according to manufacturer's protocol. […] Cells were then spun down again, resuspended in binding buffer containing PI and analyzed by flow cytometry.

With `CC(C)c1ccc(S(=O)(=O)Nc2cccnc2Oc2ccc(Cl)cc2)cc1` [Example 1, N-(2-(4-chlorophenoxy)pyridin-3-yl)-4-isopropylbenzenesulfonamide] the “concentration of maximum effect on proliferation” value [1] was 60 µM, the proliferation [1] was “dose-dependent reduction of proliferation” and the “PARP cleavage (apoptosis)” value [2] was “Neither in OBL nor in MSC apoptosis was induced”. The sub-G1 fraction [3] was “increase in the sub-G1 fraction”.

Source: patent publication US20110251220A1, “Pharmaceutical compositions comprising gamma secretase modulators” (priority 2008, published 2011)
